ChEMBL document CHEMBL1132908, “Synthesis and activity studies of conformationally restricted alpha-ketoamide factor Xa inhibitors” (Bioorg Med Chem Lett, 2000)

What was measured:
Coagulation factor X = Coagulation factor X (Homo sapiens, UniProt P00742); experiment: Inhibition of Coagulation factor X
Prothrombin = Prothrombin (Homo sapiens, UniProt P00734); experiment: Binding affinity for human thrombin

Coagulation factor X, sequence (P00742 41-179 limits assumed): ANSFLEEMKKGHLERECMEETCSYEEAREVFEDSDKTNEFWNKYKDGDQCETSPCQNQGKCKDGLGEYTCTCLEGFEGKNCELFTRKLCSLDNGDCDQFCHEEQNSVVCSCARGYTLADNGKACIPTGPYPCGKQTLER
Coagulation factor X, sequence (P00742 235-488 limits assumed): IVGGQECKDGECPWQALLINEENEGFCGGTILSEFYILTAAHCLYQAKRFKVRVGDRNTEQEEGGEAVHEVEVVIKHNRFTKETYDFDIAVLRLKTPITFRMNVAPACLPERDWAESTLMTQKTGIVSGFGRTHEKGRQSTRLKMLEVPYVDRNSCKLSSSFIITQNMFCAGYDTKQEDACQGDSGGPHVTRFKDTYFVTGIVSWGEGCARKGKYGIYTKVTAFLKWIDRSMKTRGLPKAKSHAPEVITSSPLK

Row | Ki (Coagulation factor X) | Ki (Prothrombin) | SMILES
1 | 120 nM | 120 nM | CN(CC(=O)N[C@@H](CCCCN)C(=O)C(=O)Nc1cccc(N)c1)C(=O)c1ccccc1Sc1ccccc1C#N
2 | 1.1 nM | 8.8 nM | CN(CC(=O)N[C@@H](CCCCN)B(O)O)C(=O)c1ccccc1Sc1ccccc1C#N
3 | 360 nM | 7400 nM | CN(CC(=O)N[C@@H](CCCCN)C(=O)C(=O)NCc1ccccn1)C(=O)c1ccccc1Sc1ccccc1C#N
4 | 120 nM | 59 nM | CN(CC(=O)N[C@@H](CCCCN)C(=O)C(=O)Nc1ccc(Oc2cccc(N)c2)cc1)C(=O)c1ccccc1Sc1ccccc1C#N
5 | 54 nM | 60 nM | CN(CC(=O)N[C@@H](CCCCN)C(=O)C(=O)Nc1ccccc1)C(=O)c1ccccc1Sc1ccccc1C#N
6 | 17 nM | 1.6 nM | CN(CC(=O)N[C@@H](CCCCN)B(O)O)C(=O)c1ccccc1Sc1ccccc1
7 | 60 nM | 50 nM | CN(CC(=O)N[C@@H](CCCCN)C(=O)C(=O)Nc1ccc(Oc2cccnc2)cc1)C(=O)c1ccccc1Sc1ccccc1C#N
8 | 200 nM | 8700 nM | CN(CC(=O)N[C@@H](CCCCN)C(=O)C(=O)NCCN1CCOCC1)C(=O)c1ccccc1Sc1ccccc1C#N
9 | 110 nM | 570 nM | CNC(=O)C(=O)[C@H](CCCCN)NC(=O)CN(C)C(=O)c1ccccc1Sc1ccccc1C#N
10 | 5800 nM | 97 nM | CN(CC(=O)N[C@@H](CCCCN)B(O)O)C(=O)c1ccccc1S(=O)(=O)c1ccccc1
11 | 120 nM | 68 nM | CN(CC(=O)N[C@@H](CCCCN)C(=O)C(=O)Nc1ccc(Oc2ccc(N)cc2)cc1)C(=O)c1ccccc1Sc1ccccc1C#N
12 | 100 nM | 4.9 nM | CN(CC(=O)N[C@@H](CCCCN)B(O)O)C(=O)c1ccccc1Cc1ccccc1
